Measurements taken from patent US20050249674A1, “Aerosol composition” (University College Cardiff Consultants Limited, priority 1998, published 2005).

Experiment: visual assessment of suspension: ease of dispersion on hand held shaking, extent of aggregation, suspension quality
Assay type: physicochemical
Conditions: in HFA-134a or HFA-227
Procedure: Each suspension was assessed visually for its ease of dispersion on hand held shaking, its extent of aggregation and the quality of the suspension.
Ease of dispersion was scored on a scale of good (g), medium (m) and poor (p).
The extent of aggregation was scored on a scale of low, medium and high. Additionally the type of aggregation, if present, was recorded.
The quality of the suspension was scored on a scale of poor (p), poor-fair (p/f), fair (f), fair-good (f/g) and good (g).
The suspension properties measured by visual inspection were ease of dispersion, extent of aggregation and suspension quality and were scored as for Examples A to Q.
The resulting suspensions were assessed visually for ease of dispersion, suspension quality and extent of aggregation and scored as above, as set out under Examples A to R. The results are given in Table IV below.
The suspensions so formed were assessed visually for ease of dispersion and suspension quality and each assessment was scored on a scale of poor (p), poor-fair (p/f), fair (f), fair-good (f/g), good (g).
The extent of aggregation of each suspension was also assessed visually and in each example was rated as low.

| tendency to cream or sediment in the propellant | SMILES |
| --- | --- |
| tendency to sediment | OC[C@H]1OC(O)[C@H](O)[C@@H](O)[C@@H]1O (stereo partly drawn) [Glucose, d-glucose anhydrous] |
| tendency to cream | CC(C)C[C@H](N)C(=O)O [Leucine, L-leucine] |
